Measured values published in patent publication US7169925B2, “Indole derivatives as interleukin-4 gene expression inhibitors” (Aventis Pharmaceuticals Inc., priority 2002, dated 2007).
Structures can show the parent of a compound that is named as a salt. Starred links: 1 amine or outer side, 2 acyl side, 3 side chain; linkers in the order of their positions; H or OH if unused. Positions of bridges follow the written chain, without caps; N, C: chain ends. Non-standard residues stand in square brackets, D forms with d. Residues, ends and D or L forms follow the SMILES beside them. Chains are numbered I, II in the order given. Actinocin(9to1) = Cc1c2oc3c(C)ccc(C(=O)[*:1])c3nc-2c(C(=O)[*:2])c(N)c1=O; NMeV = CN[C@H](C(=O)O)C(C)C; Sar = CNCC(=O)O

How the values were obtained:
Swiss 3T3 fibroblasts = assay: In vitro cytotoxicity assay on contact inhibited, non-dividing 3T3 fibroblasts (MTS); assay type: cell-based
Procedure: Other toxicity assays may be used.
Any compound killing 3T3 fibroblast cells was omitted from further studies.
Contact inhibited Swiss 3T3 fibroblasts are purchased from ATCC.
All compound dilutions are assayed in triplicate. […] Cells are returned to the incubator for 2 days.
Media is added to blank wells for background calculations.
Note that starting concentration of CsA was 1 μM.

Solubility (statement) = assay type: physicochemical
[1] = Oral bioavailability (statement); assay type: in vivo
[2] = Sheep asthma model (Ascaris suum antigen challenge, specific lung resistance, PC400); assay type: in vivo
Procedure: Briefly, transpulmonary pressure, pulmonary resistance (RL), specific lung resistance (SRL airway hyper reactivity, airway responsiveness, are determined.
Venous blood samples (˜5 ml) are obtained from a peripheral leg vein or the jugular vein for pharmacokinetic data. Measurement of Airway Mechanics: The unsedated sheep are restrained in a cart in the prone position with their heads immobilized. After topical anesthesia of the nasal passages with 2% lidocaine solution, a balloon catheter is advanced through one nostril into the lower esophagus. The animals are […] with a cuffed endotracheal tube through the other nostril using a flexible fiberoptic bronchoscope as a guide. (The cuff of the endotracheal tube is inflated only for the measurement of airway mechanics and during aerosol challenges to prevent undue discomfort. This procedure has no effect on airway mechanics). Pleural pressure is estimated with the esophageal balloon catheter (filled with one ml of air) which is positioned 5–10 cm from the gastroesophageal junction. In this position the end expiratory pleural pressure ranges between −2 and −5 cm H2O. Once the balloon is placed, it is secured so that it remains in position for the duration of the experiment. Lateral pressure in the trachea is measured with a sidehole catheter (inner dimension, 2.5 mm) advanced through and positioned distal to the tip of the endotracheal tube. Transpulmonary pressure, the difference between tracheal and pleural pressure, is measured with a differential pressure transducer catheter system. […] The signals of flow and transpulmonary pressure is recorded on an oscilloscope recorder which is linked to a computer for on-line calculation of RL from transpulmonary pressure, respiratory volume (obtained by digital integration) and flow. […] Immediately after the measurement of RL, thoracic gas volume (Vtg) is measured in a constant volume body plethysmograph to obtain specific lung resistance (SRL=RL·Vtg) in L×cm H2O/LPS. […]

[3] = 3 mg/kg aerosol 30 min before antigen challenge, 2 sheep (FIG. 3A)

Row | SMILES | melting point | further results
1 | Cc1c2oc3c(C)ccc(C(=O)N[C@@H]4C(=O)N[C@H](C(C)C)C(=O)N5CCC[C@H]5C(=O)N(C)CC(=O)N(C)[C@@H](C(C)C)C(=O)O[C@@H]4C)c3nc-2c(C(=O)N[C@@H]2C(=O)N[C@H](C(C)C)C(=O)N3CCC[C@H]3C(=O)N(C)CC(=O)N(C)[C@@H](C(C)C)C(=O)O[C@@H]2C)c(N)c1=O [Actinomycin D] (I: T[dV]P[Sar][NMeV] / II: T[dV]P[Sar][NMeV]; ester I:1-I:C, II:1-II:C; linker I:N-II:N via Actinocin(9to1)) |  | viability of quiescent 3T3 cells, % control (Swiss 3T3 fibroblasts; 0.001 μM, 2 day incubation): 79.0 % control; toxic effects on quiescent 3T3 cells (in words) (Swiss 3T3 fibroblasts; non-dividing 3T3 cells): effected the viability
2 | C[C@@H]1C[C@H]2[C@@H]3CCC4=CC(=O)C=C[C@]4(C)[C@@]3(F)[C@@H](O)C[C@]2(C)[C@@]1(O)C(=O)CO [Dexamethasone] |  | viability of quiescent 3T3 cells, % control (Swiss 3T3 fibroblasts; mouse, 2 days, 0.001 μM): 100.0 % control
3 | O=C(O)c1[nH]c2ccccc2c1Nc1ccncc1 [Example 28, 3-(4-Pyridinylamino)-1H-indole-2-carboxylic acid] |  | solubility (in words) (Solubility (statement)): relatively low solubility; oral bioavailability (in words) [1]: low oral bioavailability; antigen-induced early bronchial response: acute increase in specific lung resistance (SRL) [2, 3]: did not affect; antigen-induced late bronchial response (SRL) [2, 3]: blocked the late response; post challenge airway responsiveness (decrease of PC400 after antigen challenge) ([2]; 3 mg/kg, 2 sheep (FIG. 3B)): prevented this effect
4 | CCOC(=O)c1c(Nc2ccncc2)c2ccc(Cl)cc2n1CC(=O)N(CC)CC [Example 34, 6-Chloro-1-diethylcarbamoylmethyl-3-(pyridin-4-ylamino)-1H-indole-2-carboxylic acid ethyl ester] | 212 to 214 °C | 
5 | CN(C(=O)c1ccc(Cl)cc1)c1c(C(=O)O)[nH]c2cc(Cl)cc(Cl)c12 [Example 80, 3-((4-chlorobenzoyl)methylamino)-4,6-dichloro-1H-indole-2-carboxylic acid] | 279 to 283 °C | 
6 | O=C(Nc1c(C(=O)O)[nH]c2cc(Cl)cc(Cl)c12)c1ccccc1Cc1ccccc1 [Example 87, 3-((2-Benzylbenzoyl)amino)-4,6-dichloro-1H-indole-2-carboxylic acid] | 234 to 235 °C | 
7 | CN(C(=O)c1cccc(F)c1)c1c(C(=O)O)[nH]c2cc(Cl)cc(Cl)c12 [Example 88, 3-((3-Fluorobenzoyl)methylamino)-4,6-dichloro-1H-indole-2-carboxylic acid] | 270 to 280 °C | 
8 | CN(Cc1cnc2nc(N)nc(N)c2n1)c1ccc(C(=O)N[C@@H](CCC(=O)O)C(=O)O)cc1 [Methotrexate] |  | viability of quiescent 3T3 cells, % control (Swiss 3T3 fibroblasts; mouse, 2 days, 0.03 μM): 100.0 % control

The next lines start with results.

Row | melting point | SMILES | further results
9 | 192 to 194 °C (dec.) | Cn1c(C(=O)O)c(Nc2ccncc2)c2ccccc21.O=C(O)/C=C\C(=O)O | 
10 | 231 to 234 °C (dec.) | O=C(O)c1[nH]c2cccc(F)c2c1Nc1ccncc1 (as salt: trifluoroacetate) | 
11 | 211 to 213 °C | COc1ccc2[nH]c(C(=O)O)c(Nc3ccncc3)c2c1 (as salt: trifluoroacetate) | 
12 | 197 to 199 °C | Cn1c(C(=O)O)c(Nc2ccncc2)c2c(F)cccc21 (as salt: trifluoroacetate) [Example 31, 4-Fluoro-1-Methyl-3-(4-pyridinylamino)-1H-indole-2-carboxylic acid Trifluoroacetate Salt] | 
13 | 210 to 212 °C | CC(C)(C)OC(=O)c1[nH]c2cccc(F)c2c1Nc1ccncc1 [Example 17, 4-fluoro-3-(4-pyridinylamino)-1H-indole-2-carboxylic tert-butyl ester] | 
14 | 217 to 219 °C | COc1ccc2[nH]c(C(=O)OC(C)(C)C)c(Nc3ccncc3)c2c1 [Example 21, 5-methoxy-3-(4-pyridinylamino)-1H-indole-2-carboxylic tert-butyl ester] | 
15 | 154 to 155 °C | CCOC(=O)c1c(Nc2ccncc2)c2ccc(Cl)cc2n1C [Example 27, 6-Chloro-1-methyl-3-(4-pyridinylamino)-1H-indole-2-carboxylic ethyl ester] | 
16 | 230 °C (dec.) | NC(=O)c1[nH]c2ccccc2c1Nc1ccncc1 [Example 128, 3-(Pyridin-4-ylamino)-1H-indole-2-carboxamide] | 
